Results taken from publication PMC7262789 (Journal of medicinal chemistry, 2019).

These molecules were tested against T1, isolated N-terminal domain of sEH (sEH-P) (Homo sapiens, UniProt P34913) (assay: DiFMUP-based phosphatase assay, isolated N-terminal domain). Conditions: substrate.
T1 sequence (P34913 1-222): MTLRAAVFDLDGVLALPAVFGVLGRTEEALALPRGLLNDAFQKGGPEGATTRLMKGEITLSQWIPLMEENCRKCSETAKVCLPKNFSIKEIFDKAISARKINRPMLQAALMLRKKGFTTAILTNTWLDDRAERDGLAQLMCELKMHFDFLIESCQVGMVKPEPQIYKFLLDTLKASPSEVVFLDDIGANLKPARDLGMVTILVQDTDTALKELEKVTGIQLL

Structure (SMILES) | Km
Cc1cc(=O)oc2c(F)c(OP(=O)(O)O)c(F)cc12 [DiFMUP, reference compound] | 220 µM

The molecules below were run against T2, N-terminal domain of sEH (sEH-P) (Homo sapiens, UniProt P34913) (assay: Differential scanning fluorimetry). Conditions: inhibitor 50 μM.
T2 sequence (P34913 2-224): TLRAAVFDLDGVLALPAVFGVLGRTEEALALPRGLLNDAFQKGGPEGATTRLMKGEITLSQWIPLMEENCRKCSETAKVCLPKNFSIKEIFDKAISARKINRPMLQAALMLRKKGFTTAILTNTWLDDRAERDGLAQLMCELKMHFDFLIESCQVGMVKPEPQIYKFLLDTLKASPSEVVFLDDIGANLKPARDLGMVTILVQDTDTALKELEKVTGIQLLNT
Type: binding

Structure (SMILES) | stabilization of the N-terminal domain in DSF
O=C(Nc1ccc(I)cc1)NC1CCCCC1 [CIU, N-cyclohexyl-N′-(4-iodophenyl)urea, reference compound] | no stabilizing effect
CC(=O)N[C@@H](CSC/C=C(\C)CC/C=C(\C)CCC=C(C)C)C(=O)O [compound 2, N-acetyl-S-farnesyl-L-cysteine] | able to stabilize

Each molecule was assayed against T3, C-terminal domain of sEH (sEH-H) (Homo sapiens, UniProt P34913) (assay: Differential scanning fluorimetry). Conditions: inhibitor 50 μM.
T3 sequence (P34913 235-555 limits assumed): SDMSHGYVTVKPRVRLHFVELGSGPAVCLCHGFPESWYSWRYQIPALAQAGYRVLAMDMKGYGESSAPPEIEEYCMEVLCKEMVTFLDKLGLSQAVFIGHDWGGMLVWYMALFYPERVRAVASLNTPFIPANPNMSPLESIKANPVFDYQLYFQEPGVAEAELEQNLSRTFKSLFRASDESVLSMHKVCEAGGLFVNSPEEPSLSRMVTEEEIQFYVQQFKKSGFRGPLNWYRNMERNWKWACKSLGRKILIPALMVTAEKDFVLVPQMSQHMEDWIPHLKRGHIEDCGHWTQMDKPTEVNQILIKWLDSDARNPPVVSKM
Type: binding

Structure (SMILES) | stabilization of the C-terminal domain in DSF
O=C(Nc1ccc(I)cc1)NC1CCCCC1 [CIU, N-cyclohexyl-N′-(4-iodophenyl)urea, reference compound] | significantly increased

What follows are molecules tested against T4, full-length human sEH (Homo sapiens, UniProt P34913) (assay: DiFMUP-based phosphatase assay, full-length sEH). Conditions: substrate.
T4 sequence (P34913 1-555): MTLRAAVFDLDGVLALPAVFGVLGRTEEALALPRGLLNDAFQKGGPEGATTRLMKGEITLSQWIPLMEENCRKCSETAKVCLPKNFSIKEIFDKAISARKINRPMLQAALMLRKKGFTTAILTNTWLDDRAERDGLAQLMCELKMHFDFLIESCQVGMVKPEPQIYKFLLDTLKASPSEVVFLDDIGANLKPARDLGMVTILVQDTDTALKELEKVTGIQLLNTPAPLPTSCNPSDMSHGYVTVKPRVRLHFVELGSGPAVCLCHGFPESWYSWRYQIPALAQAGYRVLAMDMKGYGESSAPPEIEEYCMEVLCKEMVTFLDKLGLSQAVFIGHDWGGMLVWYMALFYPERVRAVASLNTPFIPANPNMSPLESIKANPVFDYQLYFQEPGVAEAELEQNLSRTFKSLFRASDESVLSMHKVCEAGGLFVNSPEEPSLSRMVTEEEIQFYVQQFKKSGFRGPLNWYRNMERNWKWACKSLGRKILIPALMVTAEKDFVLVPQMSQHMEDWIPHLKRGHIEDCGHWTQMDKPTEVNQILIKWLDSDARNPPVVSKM

Structure (SMILES) | Km
Cc1cc(=O)oc2c(F)c(OP(=O)(O)O)c(F)cc12 [DiFMUP, reference compound] | 628 µM

These molecules were tested against T5, recombinant sEH-P domain (N-terminal domain of sEH) (Homo sapiens, UniProt P34913) (assay: FDP-based phosphatase assay, isolated sEH-P domain). Conditions: FDP substrate, recombinant sEH-P domain.
T5 sequence (P34913 1-222): T1 sequence (P34913 1-222)
Type: biochemical

Structure (SMILES) | inhibitory potency toward sEH-P (SAR statement in words)
O=C(O)CCCc1nc(-c2ccc(Cl)c(Cl)c2)c(-c2ccncc2)o1 [28a, 4-(4-(3,4-Dichlorophenyl)-5-(pyridin-4-yl)oxazol-2-yl)butanoic Acid] | not favored
O=C(O)CCc1nc(-c2ccccc2F)c(-c2ccccc2)o1 [20a, 3-(4-(2-Fluorophenyl)-5-phenyloxazol-2-yl)propanoic Acid] | poorly tolerated
O=C(O)CCCc1nc(-c2ccc(Cl)c(Cl)c2)c(-c2cccnc2)o1 [28b, 4-(4-(3,4-Dichlorophenyl)-5-(pyridin-3-yl)oxazol-2-yl)butanoic Acid] | not favored
O=C(O)CCc1nc(-c2ccc(F)cc2)c(-c2ccccc2)o1 [20e, 3-(4-(4-Fluorophenyl)-5-phenyloxazol-2-yl)propanoic Acid] | only slightly diminished the potency
O=C(O)CCc1nc(-c2ccc(Cl)cc2Cl)c(-c2ccccc2)o1 [20l, 3-(4-(2,4-Dichlorophenyl)-5-phenyloxazol-2-yl)propanoic Acid] | did not lead to potency improvement
N#Cc1cccc(-c2nc(CCC(=O)O)oc2-c2ccccc2)c1 [20c, 3-(4-(3-Cyanophenyl)-5-phenyloxazol-2-yl)propanoic Acid] | retained similar potency as 5
O=C(O)CCc1nc(-c2ccc(C(F)(F)F)cc2)c(-c2ccccc2)o1 [20f, 3-(5-Phenyl-4-(4-(trifluoromethyl)phenyl)oxazol-2-yl)propanoic Acid] | loss of activity
O=C(O)CCCc1nc(-c2ccc(Cl)c(Cl)c2)c(-c2cccc(F)c2)o1 [28e, 4-(4-(3,4-Dichlorophenyl)-5-(3-fluorophenyl)oxazol-2-yl)butanoic Acid] | slight preference
O=C(O)CSc1nc(-c2ccccc2)c(-c2ccccc2)o1 [compound 9, 2-((4,5-Diphenyloxazol-2-yl)thio)acetic Acid] | slightly diminished the potency
O=C(O)CCCc1nc(-c2ccc(Cl)c(Cl)c2)co1 [compound 25, 4-(4-(3,4-Dichlorophenyl)oxazol-2-yl)butanoic Acid] | potency dropped dramatically
O=C(O)CCc1nc(-c2ccc(Cl)cc2)c(-c2ccccc2)o1 [20h, 3-(4-(4-Chlorophenyl)-5-phenyloxazol-2-yl)propanoic Acid] | slightly enhanced inhibitory potency
O=C(O)c1ccccc1-c1nc(-c2ccc(Cl)c(Cl)c2)c(-c2ccccc2)o1 [22c, 2-(4-(3,4-Dichlorophenyl)-5-phenyloxazol-2-yl)benzoic Acid] | did not retain this high potency
O=C(O)CCCc1nc(-c2ccc(Cl)c(Cl)c2)c(Br)o1 [compound 26, 4-(5-Bromo-4-(3,4-dichlorophenyl)oxazol-2-yl)butanoic Acid] | partially restored
O=C(O)CCc1nc(-c2cccc(F)c2)c(-c2ccccc2)o1 [20d, 3-(4-(3-Fluorophenyl)-5-phenyloxazol-2-yl)propanoic Acid] | retained similar potency as 5
N#Cc1cccc(-c2oc(CCCC(=O)O)nc2-c2ccc(Cl)c(Cl)c2)c1 [28g, 4-(5-(3-Cyanophenyl)-4-(3,4-dichlorophenyl)oxazol-2-yl)butanoic Acid] | slight preference
O=C(O)c1ccc(-c2nc(-c3ccc(Cl)c(Cl)c3)c(-c3ccccc3)o2)cc1 [22e, 4-(4-(3,4-Dichlorophenyl)-5-phenyloxazol-2-yl)benzoic Acid] | did not retain this high potency
O=C(O)CCc1nc(-c2ccccc2Cl)c(-c2ccccc2)o1 [20b, 3-(4-(2-Chlorophenyl)-5-phenyloxazol-2-yl)propanoic Acid] | poorly tolerated
COc1ccc(-c2nc(CCC(=O)O)oc2-c2ccccc2)cc1 [20i, 3-(4-(4-Methoxyphenyl)-5-phenyloxazol-2-yl)propanoic Acid] | decreased the activity
C#Cc1cccc(-c2oc(CCCC(=O)O)nc2-c2ccc(Cl)c(Cl)c2)c1 [28j, 4-(4-(3,4-Dichlorophenyl)-5-(3-ethynylphenyl)oxazol-2-yl)butanoic Acid] | slight preference
O=C(O)CCc1nc(-c2cc(Cl)cc(Cl)c2)c(-c2ccccc2)o1 [20m, 3-(4-(3,5-Dichlorophenyl)-5-phenyloxazol-2-yl)propanoic Acid] | did not lead to potency improvement
NC(=O)CCc1nc(-c2ccccc2)c(-c2ccccc2)o1 [compound 12, 3-(4,5-Diphenyloxazol-2-yl)propanamide] | complete loss of activity
N#Cc1ccc(-c2nc(CCC(=O)O)oc2-c2ccccc2)cc1 [20g, 3-(4-(4-Cyanophenyl)-5-phenyloxazol-2-yl)propanoic Acid] | loss of activity

Same assay, conditions: rigidization of the ethyl linker by a double bond

Structure (SMILES) | loss of potency
O=C(O)/C=C/c1nc(-c2ccc(Cl)c(Cl)c2)c(-c2ccccc2)o1 [22a, 3-(4-(3,4-Dichlorophenyl)-5-phenyloxazol-2-yl)acrylic Acid] | 2 fold

Same assay, conditions: second chlorine at meta position, compared with 20h

Structure (SMILES) | increase in sEH-P inhibition
O=C(O)CCc1nc(-c2ccc(Cl)c(Cl)c2)c(-c2ccccc2)o1 [20k, 3-(4-(3,4-Dichlorophenyl)-5-phenyloxazol-2-yl)propanoic Acid] | more than 10 fold
